Test results as given in ChEMBL document CHEMBL1201862, “PubChem BioAssay data set” (2004).
The source made the active and inactive calls.

How the values were obtained:
[1] = biological target: Estrogen receptor beta (Homo sapiens, UniProt Q92731); test: blockers of SRC-3 recruitment to ERβ – biochemical, ELISA, streptavidin-HRP readout, orthogonal assay, confirmation (AID 1060)
[2] = biological target: Cytochrome P450 2C9 (Homo sapiens, UniProt P11712); details: Potency
[3] = viability of PTEN-deleted HCT116 cells – cell-based, HCT116 PTEN knockout, dose response (AID 1047); assay type: functional;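 also: HCT116 colon tumor cells with PTEN knocked out; cells exposed to compound for 60 hours before readout; potency for loss of cell viability measured by luminescence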
[4] = biological target: T1, Mannose-6-phosphate isomerase (Homo sapiens, UniProt P34949); test: MPI inhibition at elevated mannose 6-phosphate – biochemical, fluorescence intensity, high mannose 6-phosphate, primary screen (AID 1220)
T1 sequence (P34949 whole entry): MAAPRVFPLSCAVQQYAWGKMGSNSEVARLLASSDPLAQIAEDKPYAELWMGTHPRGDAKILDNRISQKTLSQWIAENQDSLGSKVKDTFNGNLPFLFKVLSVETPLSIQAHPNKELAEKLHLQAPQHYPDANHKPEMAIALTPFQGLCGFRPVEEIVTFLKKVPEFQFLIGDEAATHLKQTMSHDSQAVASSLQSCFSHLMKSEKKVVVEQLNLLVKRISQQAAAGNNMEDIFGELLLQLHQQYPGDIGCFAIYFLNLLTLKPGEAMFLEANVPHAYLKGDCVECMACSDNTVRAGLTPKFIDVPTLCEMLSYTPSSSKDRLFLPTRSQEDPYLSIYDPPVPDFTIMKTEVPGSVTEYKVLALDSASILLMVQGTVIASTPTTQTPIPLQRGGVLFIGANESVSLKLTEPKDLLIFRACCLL

[5] = viability of HCT116 lacking mutant beta-catenin – cell-based, human colon tumor, dose response (AID 1045); assay type: functional;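 also: HCT116 colon tumor cells with beta catenin knocked out; cells exposed to compound for 60 hours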
[6] = biological target: T2, Protein RecA (Mycobacterium tuberculosis, UniProt P9WHJ3); test: Fluorescence Cell-Free Homogeneous Dose Retest to Identify Inhibitors of RecA-Intein Splicing Activity. [Related pubchem assays (depositor defined):AID2097, AID2223, AID489010, AID492950]; assay type: functional
T2 sequence (P9WHJ3 whole entry): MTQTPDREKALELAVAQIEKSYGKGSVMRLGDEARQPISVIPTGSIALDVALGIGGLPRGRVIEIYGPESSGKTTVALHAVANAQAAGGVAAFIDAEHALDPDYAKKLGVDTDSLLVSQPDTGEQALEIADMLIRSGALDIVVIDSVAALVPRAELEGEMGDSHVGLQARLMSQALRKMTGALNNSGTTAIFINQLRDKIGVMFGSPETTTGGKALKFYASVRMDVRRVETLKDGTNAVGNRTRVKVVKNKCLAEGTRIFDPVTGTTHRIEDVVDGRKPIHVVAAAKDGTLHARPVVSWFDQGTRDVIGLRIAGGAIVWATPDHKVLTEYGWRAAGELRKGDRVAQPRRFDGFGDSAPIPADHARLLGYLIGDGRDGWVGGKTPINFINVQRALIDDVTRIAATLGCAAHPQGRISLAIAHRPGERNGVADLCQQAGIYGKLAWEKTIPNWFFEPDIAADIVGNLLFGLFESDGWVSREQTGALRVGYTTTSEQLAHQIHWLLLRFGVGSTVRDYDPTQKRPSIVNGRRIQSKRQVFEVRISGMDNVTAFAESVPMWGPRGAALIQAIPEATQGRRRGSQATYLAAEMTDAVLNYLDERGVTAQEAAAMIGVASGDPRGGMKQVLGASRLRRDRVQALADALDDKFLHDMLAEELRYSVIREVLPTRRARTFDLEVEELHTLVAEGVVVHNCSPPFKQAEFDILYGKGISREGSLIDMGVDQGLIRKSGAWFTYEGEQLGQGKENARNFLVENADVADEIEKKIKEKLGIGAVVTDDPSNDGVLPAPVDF

[7] = biological target: T3, Replicative DNA helicase DnaB (Mycobacterium tuberculosis, UniProt P9WMR3); test: DnaB intein splicing inhibitors, dose response, biochemical, cell-free fluorescence (AID 449749); assay type: functional
T3 sequence (P9WMR3 whole entry): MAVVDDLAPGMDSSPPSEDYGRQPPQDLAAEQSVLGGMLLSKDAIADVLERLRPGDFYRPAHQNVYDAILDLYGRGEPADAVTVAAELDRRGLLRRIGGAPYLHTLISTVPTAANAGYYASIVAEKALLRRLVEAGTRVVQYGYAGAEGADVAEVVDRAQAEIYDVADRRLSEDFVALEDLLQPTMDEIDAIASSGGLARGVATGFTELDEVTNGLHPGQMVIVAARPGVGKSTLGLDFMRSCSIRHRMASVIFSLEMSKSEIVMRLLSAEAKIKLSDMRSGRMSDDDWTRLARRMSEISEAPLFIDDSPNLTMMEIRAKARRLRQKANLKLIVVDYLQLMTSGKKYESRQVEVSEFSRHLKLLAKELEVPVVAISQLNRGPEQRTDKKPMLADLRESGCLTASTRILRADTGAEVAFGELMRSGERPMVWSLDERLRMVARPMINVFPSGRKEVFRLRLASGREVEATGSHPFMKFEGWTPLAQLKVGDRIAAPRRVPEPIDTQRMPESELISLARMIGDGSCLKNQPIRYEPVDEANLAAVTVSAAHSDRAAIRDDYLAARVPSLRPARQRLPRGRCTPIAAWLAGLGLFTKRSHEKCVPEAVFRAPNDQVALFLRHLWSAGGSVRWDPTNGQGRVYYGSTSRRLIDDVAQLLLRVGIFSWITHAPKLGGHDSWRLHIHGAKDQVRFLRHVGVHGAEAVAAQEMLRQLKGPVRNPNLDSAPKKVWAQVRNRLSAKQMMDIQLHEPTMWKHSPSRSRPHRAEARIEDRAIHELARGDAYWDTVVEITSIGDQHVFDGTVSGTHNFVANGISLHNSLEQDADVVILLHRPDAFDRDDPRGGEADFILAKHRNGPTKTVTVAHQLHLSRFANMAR

[8] = viability loss of HPDE-C7K cells – cell-based, fluorescence, HTS, primary screen (AID 431); assay type: functional; details: Homo sapiens
[9] = HPDE-C7 pancreatic duct cell viability loss – fluorescence, HTS (AID 430); assay type: functional, cell-based; details: Homo sapiens
[10] = biological target: Cytochrome P450 2C19 (Homo sapiens, UniProt P33261); test: qHTS Assay for Inhibitors and Substrates of Cytochrome P450 2C19. [Related pubchem assays: 410 ]; assay type: ADME; details: read-out: Potency
[11] = non-specific 3'UTR reporter inhibition in Clone20-Shn3RL – cell-based, Renilla luciferase, cherry-picked, counter-screen for Shn3 inhibitor project, dose response (AID 624133); assay type: functional
[12] = reduction of Shn3 3'UTR-driven luciferase in osteoblasts – cell-based, Clone20 osteoblasts, firefly luciferase, cherry-picked, dose response (AID 624132); assay type: functional;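 also: firefly luciferase luminescence from reporter carrying the Shn3 3'UTR in osteoblasts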
[13] = loss of viability in HepG2 cells – cell-based, CellTiter-Glo, cherry-picked, cytotoxicity control for Shn3 inhibitor project, dose response (AID 624134); assay type: functional
[14] = Luminescence Cell-Based Dose Retest to Confirm Inhibitors of Cancer Stem Cells. [Related pubchem assays (depositor defined):AID2717, AID2721]; assay type: functional; details: Homo sapiens

Cytochrome P450 2C19, sequence (P33261 whole entry): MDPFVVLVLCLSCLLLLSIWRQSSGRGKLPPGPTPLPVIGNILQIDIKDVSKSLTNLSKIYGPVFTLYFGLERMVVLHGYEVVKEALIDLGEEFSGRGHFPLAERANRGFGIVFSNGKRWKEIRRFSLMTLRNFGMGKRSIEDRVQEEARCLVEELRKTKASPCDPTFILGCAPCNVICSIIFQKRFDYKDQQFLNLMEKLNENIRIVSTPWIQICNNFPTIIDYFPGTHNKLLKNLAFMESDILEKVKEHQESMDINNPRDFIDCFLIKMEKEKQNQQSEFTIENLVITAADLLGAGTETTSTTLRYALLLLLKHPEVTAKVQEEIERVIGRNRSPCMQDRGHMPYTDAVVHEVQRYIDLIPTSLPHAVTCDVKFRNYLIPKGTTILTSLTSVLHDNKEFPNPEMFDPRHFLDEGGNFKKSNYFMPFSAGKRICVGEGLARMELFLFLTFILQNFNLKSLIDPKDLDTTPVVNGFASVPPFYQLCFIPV
Cytochrome P450 2C9, sequence (P11712 whole entry): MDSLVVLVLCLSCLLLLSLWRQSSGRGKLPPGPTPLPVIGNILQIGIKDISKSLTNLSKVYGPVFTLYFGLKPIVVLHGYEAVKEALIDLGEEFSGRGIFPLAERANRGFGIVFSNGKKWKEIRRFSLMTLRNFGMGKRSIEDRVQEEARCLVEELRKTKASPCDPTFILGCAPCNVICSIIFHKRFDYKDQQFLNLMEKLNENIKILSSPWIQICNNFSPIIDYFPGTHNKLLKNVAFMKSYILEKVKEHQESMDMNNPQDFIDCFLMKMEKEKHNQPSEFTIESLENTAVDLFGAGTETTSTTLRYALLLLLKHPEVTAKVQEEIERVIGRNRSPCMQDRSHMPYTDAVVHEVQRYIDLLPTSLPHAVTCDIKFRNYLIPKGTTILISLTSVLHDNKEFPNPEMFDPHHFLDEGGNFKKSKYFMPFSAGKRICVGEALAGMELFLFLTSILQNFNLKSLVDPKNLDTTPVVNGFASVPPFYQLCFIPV
Estrogen receptor beta, sequence (Q92731 whole entry): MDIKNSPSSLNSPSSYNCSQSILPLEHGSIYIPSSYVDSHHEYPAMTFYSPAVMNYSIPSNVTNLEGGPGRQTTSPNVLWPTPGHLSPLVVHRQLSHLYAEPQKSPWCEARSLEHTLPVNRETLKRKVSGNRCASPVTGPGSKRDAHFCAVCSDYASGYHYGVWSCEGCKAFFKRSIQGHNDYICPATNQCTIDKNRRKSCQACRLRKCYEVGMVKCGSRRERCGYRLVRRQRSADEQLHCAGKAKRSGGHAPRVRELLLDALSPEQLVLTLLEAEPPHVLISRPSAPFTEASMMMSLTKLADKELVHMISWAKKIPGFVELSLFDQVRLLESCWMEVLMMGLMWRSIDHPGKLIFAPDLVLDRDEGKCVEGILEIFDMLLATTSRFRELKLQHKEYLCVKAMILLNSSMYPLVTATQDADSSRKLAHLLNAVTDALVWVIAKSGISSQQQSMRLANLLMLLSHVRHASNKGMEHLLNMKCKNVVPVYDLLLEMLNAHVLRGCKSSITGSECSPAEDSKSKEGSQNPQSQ

## O=C(NCC1CCCO1)c1cc(-c2ccco2)nc2ccccc12 (stereo not drawn)
[1]
  IC50: 26.4 µM (not active)

## NCCC[C@@H](CC(=O)N[C@@H]1CCCC[C@H]1C(=O)N[C@H](CC(=O)N[C@@H](CCC(=O)O)CC(=O)O)Cc1ccccc1)NC(=O)C[C@H](CO)NC(=O)[C@@H]1CNCC[C@H]1N
[2]
  AC50: 39.8 µM (inconclusive)

## COc1ccc(C2NC(=O)NC3=C2CCc2ccccc23)cc1 (stereo not drawn)
[3]
  EC50: 8.31 µM (active)
[4]
  IC50: 46.8 µM (active)
[5]
  EC50: 9.83 µM (active)
[6]
  EC50: 4.7 µM (active)
[7]
  AC50: > 120 µM (inactive)

## CCCOC(=O)c1ccc(Oc2c(C)n[nH]c2-c2ccc(O)cc2O)cc1
[8]
  EC50: 13.7 µM (active)
[9]
  EC50: 10.3 µM (active)

## CC(=O)OCC1OC(c2cc(C)cc(C)c2)C=CC1OC(C)=O (stereo not drawn)
[10]
  AC50: 2.51 µM (inconclusive)

## CC(C)C[C@H](N)c1nnc(S(=O)(=O)Cc2ccc(F)cc2)o1
[11]
  AC50: 22.1 µM (active)
[8]
  EC50: 7.91 µM (active)
[9]
  EC50: 8.98 µM (active)
[12]
  AC50: 9.02 µM (active)
[13]
  AC50: 27.4 µM (active)
[6]
  EC50: 25.7 µM (active)
[7]
  AC50: 1.4 µM (active)
[14]
  AC50: 4.78 µM (active)

## CC1(C)Cc2c(C#N)c(NCc3ccco3)nc(-c3ccco3)c2CO1
[8]
  EC50: > 20 µM (not active)
[9]
  EC50: 10.1 µM (active)

## NCCC[C@@H](CC(=O)N[C@@H]1CCNC[C@H]1C(=O)N[C@H](CC(=O)N[C@@H](CCC(=O)O)CC(=O)O)Cc1ccccc1)NC(=O)C[C@H](CO)NC(=O)[C@@H]1CNCC[C@H]1N
[2]
  AC50: 15.8 µM (inconclusive)
[10]
  AC50: 15.8 µM (inconclusive)

## COC(=O)C1C(c2ccccc2)C2C(=O)c3c(OC)cc(OC)cc3O[C@@]12c1ccc(OC)cc1 (stereo partly drawn)
[10]
  AC50: 0.001 µM (inconclusive)
